In ChEMBL document CHEMBL1131856, “Wasalexins A and B, new phytoalexins from wasabi: isolation, synthesis, and antifungal activity” (1999) one finds Activity and Inhibition data, which are given here for 3 molecules.

In experiment [1] the test system is Plenodomus lingam. Put plainly: Antifungal activity against P. Lingam by spore germination assay after 24 hours; No detectable inhibitory activity. The format is functional, organism-based.
Experiment [2] has as its system Plenodomus lingam. Put plainly: Antifungal activity against P. Lingam by spore germination assay after 24 hours; range is 40-50%. The format is functional.

A word on the Inhibition: it is the share of the control response that was lost under treatment.

As for `CSC(=N/C=C1/C(=O)N(C)c2ccccc21)SC`, the Activity result with Plenodomus lingam [1] is “No detectable inhibitory activity”.

Molecule `CON1C(=O)/C(=C/N=C(SC)SC)c2ccccc21` registered an Inhibition in the experiment with Plenodomus lingam [2] of 50%.

As to `COC(=O)c1cn(OC)c2ccccc12`, in the experiment on Plenodomus lingam [2], the Inhibition is listed as 50%.
